What was measured:
fresh human blood [1] = assay: Blood separation on filter paper strips with a linoleic acid line, eluted with water; details: Whatman filter paper strip
Protocol: (§1) A circle of Whatman filter paper (Qualitative 18.5 cm) was cut into strips (16 cm×2 cm). A thin line of linoleic acid was placed 8 cm from the bottom end of the strip using a syringe with needle, to lay down a thin line of liquid (approximately 5-10 μl). Next, a drop (20 μl) of fresh human blood was placed onto the strip 4 cm up from the bottom. A control strip was prepared in a similar manner except no linoleic acid was placed on the control strip. The strips were then attached to a glass rod, being 6 cm away from each other, using scotch tape. In a manner similar to paper chromatography, the strips were placed into a tall beaker (2 liter volume) containing deionized water (50 ml) in such a manner that the bottom end of the paper strips just entered the water. The water wicked up the vertically hanging strips.
The system was allowed to run for another 20 minutes after which time the strips were taken out and allowed to air dry. Both strips were then sprayed with a ninhydrin spray to detect amino acids. […] The control had traces present along the length and a strong presence where the blood spot had stopped.

fresh human blood [2] = assay: Blood separation on nitrocellulose lateral flow membrane strips with a linoleic acid line
Protocol: as §1
The experiment described in Example 1 was repeated but using nitrocellulose lateral flow membrane strips (Bangs Laboratories Inc., Fishers Ind.) in place of the paper strips. The same procedure was conducted and at the end of the flow period (20 minutes) the strips were allowed to dry. […] In contrast, the control strip allowed the blood to travel up the entire length of the strip. […]

Structure (SMILES): CCCCCC=CCC=CCCCCCCCC(=O)O [linoleic acid, 9,12-octadecadienoic acid]
- movement of blood spot on strip (fresh human blood [1]; 20 μl blood, line of approximately 5-10 μl linoleic acid, eluted by deionized water): halt at the line where the linoleic acid had been placed
- ninhydrin spray detection of amino acids (fresh human blood [1]; after air drying, visual purple color): presence of amino acids after the line
- movement of blood spot on strip (fresh human blood [2]; nitrocellulose lateral flow membrane strip, flow period 20 minutes): halted at the linoleic acid line
- phenolphthalin / 3% hydrogen peroxide spot test for dried blood and hemoglobin (fresh human blood [2]; nitrocellulose strip, beyond the linoleic acid line, visual pink color): no pink color developed
